Tests used:
Experiment in all cases: relative viability (nuclei count vs DMSO), 5 days (fraction); higher = more cells survive
Tipifarnib + Decitabine = compound: Cn1cncc1[C@@](N)(c1ccc(Cl)cc1)c1ccc2c(c1)c(-c1cccc(Cl)c1)cc(=O)n2C [Tipifarnib] + Nc1ncn([C@H]2C[C@H](O)[C@@H](CO)O2)c(=O)n1 [Decitabine] (partner 2 µM)
Procedure, shortened: (§1)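 Five library-drug doses in √10 steps were combined with a fixed anchor-drug dose, or a single drug was given alone, by pin tool to lung cancer cell lines in 1536-well plates the day after seeding. Nuclei were stained and counted after 5 days. Relative viability is the nuclei count in treated wells over that in vehicle wells, taken as the median of duplicate plates.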

Tipifarnib + Lapatinib = compound: Cn1cncc1[C@@](N)(c1ccc(Cl)cc1)c1ccc2c(c1)c(-c1cccc(Cl)c1)cc(=O)n2C [Tipifarnib] + CS(=O)(=O)CCNCc1ccc(-c2ccc3ncnc(Nc4ccc(OCc5cccc(F)c5)c(Cl)c4)c3c2)o1 [Lapatinib] (partner 2 µM)
Procedure, shortened: as §1

Tipifarnib + AZD7762 = compound: Cn1cncc1[C@@](N)(c1ccc(Cl)cc1)c1ccc2c(c1)c(-c1cccc(Cl)c1)cc(=O)n2C [Tipifarnib] + NC(=O)Nc1cc(-c2cccc(F)c2)sc1C(=O)N[C@H]1CCCNC1 [AZD7762] (partner 0.2 µM)
Procedure, shortened: as §1

Tipifarnib + Bortezomib = compound: Cn1cncc1[C@@](N)(c1ccc(Cl)cc1)c1ccc2c(c1)c(-c1cccc(Cl)c1)cc(=O)n2C [Tipifarnib] + CC(C)C[C@H](NC(=O)[C@H](Cc1ccccc1)NC(=O)c1cnccn1)B(O)O [Bortezomib] (partner 0.002 µM)
Procedure, shortened: as §1

Cell Line	relative viability (Tipifarnib + Decitabine; first compound 0.01 µM)	relative viability (Tipifarnib + Decitabine; first compound 0.03162 µM)	relative viability (Tipifarnib + Decitabine; first compound 0.1 µM)	relative viability (Tipifarnib + Decitabine; first compound 0.3162 µM)	relative viability (Tipifarnib + Decitabine; first compound 1 µM)	relative viability (Tipifarnib + Lapatinib; first compound 0.01 µM)	relative viability (Tipifarnib + Lapatinib; first compound 0.03162 µM)	relative viability (Tipifarnib + Lapatinib; first compound 0.1 µM)	relative viability (Tipifarnib + Lapatinib; first compound 0.3162 µM)	relative viability (Tipifarnib + Lapatinib; first compound 1 µM)	relative viability (Tipifarnib + AZD7762; first compound 0.01 µM)	relative viability (Tipifarnib + AZD7762; first compound 0.03162 µM)	relative viability (Tipifarnib + AZD7762; first compound 0.1 µM)	relative viability (Tipifarnib + AZD7762; first compound 0.3162 µM)	relative viability (Tipifarnib + AZD7762; first compound 1 µM)	relative viability (Tipifarnib + Bortezomib; first compound 0.01 µM)	relative viability (Tipifarnib + Bortezomib; first compound 0.03162 µM)	relative viability (Tipifarnib + Bortezomib; first compound 0.1 µM)	relative viability (Tipifarnib + Bortezomib; first compound 0.3162 µM)	relative viability (Tipifarnib + Bortezomib; first compound 1 µM)
NCI-H2405	0.783	0.688	0.721	0.683	0.73	1.06	0.942	0.949	0.878	0.625	0.759	0.758	0.688	0.523	0.589	0.983	0.909	0.985	0.923	0.61
NCI-H3122	0.414	0.407	0.415	0.397	0.308	1.01	0.917	0.961	0.73	0.811	0.967	0.971	0.714	0.556	0.348	0.967	0.976	0.986	0.833	0.832
PC-3 [JPC-3]	0.866	0.872	0.828	0.644	0.648	0.461	0.489	0.431	0.38	0.311	0.805	0.714	0.532	0.519	0.457	0.873	0.629	0.698	0.609	0.427
PC-14	0.223	0.183	0.221	0.189	0.145	0.346	0.327	0.242	0.226	0.15	0.322	0.228	0.227	0.136	0.16	1	0.873	0.555	0.453	0.464
RERF-LC-KJ	0.848	0.691	0.733	0.451	0.478	0.94	0.922	0.829	0.732	0.626	1.02	1.22	0.975	0.656	0.243	1.1	1.1	0.85	0.694	0.717
